Laboratory results from article PMC8004929, “Whole-Body Pharmacokinetics and Physiologically Based Pharmacokinetic Model for Monomethyl Auristatin E (MMAE)” (Journal of Clinical Medicine, 2021).
Square brackets hold non-standard residues; d marks the D form. Peptide text beside a SMILES is read from it. * marks the point of attachment. Dolaproine = CO[C@@H]([C@@H]1CCCN1)[C@@H](C)C(=O)O; Dil = CC[C@H](C)[C@H](NC)[C@@H](CC(=O)O)OC; X1 = C[C@@H](N*)[C@@H](O)c1ccccc1; NMeV = CN[C@H](C(=O)O)C(C)C

What was measured:
[1] = Whole-body biodistribution / PK study of MMAE in tumor-bearing mice (LC-MS/MS, NCA); format: in vivo; conditions: 0.1 mg/kg i.v.; for AUC0−t: observed conc. by LC-MS/MS, 3 mice per time point; for KPadj: KP adjusted for percentage of cellular volume in total tissue volume
Description: Male athymic nude mice were purchased at the age of 6 weeks from Charles River (Wilmington, NC, USA). After acclimation to the new conditions for two weeks, mice were subcutaneously injected with MDA-MB-468 (about 10 million tumor cells) into the right dorsal flank. The in vivo study adhered to the Principles of Laboratory Animal Care (National Institutes of Health publication 85–23, revised 1985) and were approved by the University at Buffalo Institutional Animal Care and Use Committee (IACUC# PHC29035Y).
A total of 18 mice (6 weeks old, 26–35 g) bearing MDA-MB-468 xenografts were used for the biodistribution studies. Then, 0.1 mg/kg MMAE was injected into the mice via the penile vein, and terminal samples were collected at 5 min and 1, 6, 12, 24, and 168 h. Three mice were sacrificed at each time point. Whole blood, tissue, and tumor were harvested. The collected tissues included the heart, liver, lung, spleen, pancreas, kidney, skin, bone, muscle, fat, and brain. Whole blood samples in ethylenediaminetetraacetic acid (EDTA) pre-coated tubes were centrifuged at 2000× g for 20 min at 4 °C, and plasma was collected and stored at −20 °C for further analysis. Harvested tissue samples were blotted dry and immediately frozen in liquid nitrogen and stored at −80 °C until homogenization.
A detailed tissue homogenization procedure has been reported previously. Briefly, different volumes of RIPA buffer containing protease inhibitor were added into the weighted tissue samples to obtain different dilution factors in each tissue. The dilution factor was 5 for heart, liver, lung, spleen, pancreas, kidney, skin, and fat, 8 for bone and muscle, and 4 for brain samples. Tissue samples were homogenized using a BeadBug™ microtube homogenizer (Benchmark, USA) at the maximum speed for 15 s followed by a 30-s ice cool down, and repeated three times. Blood samples without dilution were directly homogenized for 30 s at maximum speed and were treated the same way as tissue samples.
Then, 500 µL acetonitrile containing 0.1% formic acid was added into 100 µL of plasma, tissue, or tumor homogenate samples and then spiked with 20 µL of IS solution (D8-MMAE 150 ng/mL). After vortexing and centrifugation at 15,000× g for 15 min at 4 °C, the supernatants were transferred to glass tubes and dried under nitrogen flow at 32 °C. The dried residuals were reconstituted with 60 µL of acetonitrile/water (95:5 v/v) containing 0.1% formic acid, gently vortexed, and immediately transferred into HPLC vials.
Standards and quality control samples (QCs) were prepared for plasma and each tissue matrix. Then, 250 µL of the control plasma or matrices were spiked with 20 µL of IS solution (D8-MMAE 150 ng/mL) and 10 µL of MMAE stock solution diluted with acetonitrile, and then, 500 µL of acetonitrile containing 0.1% formic acid was added. The final concentrations of standard were 0.5, 1, 10, 100, 200, and 500 ng/mL. QCs were prepared similarly for the final concentrations of […].
A Waters Acquity LC-MS/MS system was used with electrospray interphase and triple quadrupole mass spectrometer. An ACQUITY UPLC BEH Amide column (Waters, Milford, MA, USA) was used with 5 mM ammonium formate and 0.1% formic acid as the aqueous phase, and 0.1% formic acid and 1 mM ammonium formate were used as the organic phase. The gradient flow rate was 0.25 mL/min. The lower limit of quantification of MMAE was […] (or ng/g) for plasma, blood, tissues, and tumor.
Noncompartmental analysis (NCA) was conducted for plasma PK data. AUC computed from time 0 to the last observed concentration time (AUC0−t) was calculated using the linear/log trapezoidal method in WinNonlin (version 8.1, Pharsight, St. Louis, MO, USA). Blood to plasma ratios ( KP,BC ) and tissue partition coefficients ( KP,i ) were calculated using Equation (1), using AUC0−t values derived from the observed data. (1) KP,BC or KP,i=AUCi,0−t/AUCp,0−t, […]

[2] = cited from earlier work
Description: The PBPK model included 16 tissues and a tumor compartment, and all of them were connected via blood flow and arranged anatomically. The tissue compartments included blood, lung, heart, kidney, muscle, skin, liver, brain, adipose, thymus, bone, small intestine, large intestine, spleen, pancreas, and other (i.e., carcass). All the other tissues, except those mentioned, were lumped into the ‘other’ compartment. The arterial blood to each organ was delivered by the efferent blood supplied from the lung, which perfused to each organ and t ... || It is reported that the elimination (metabolism and excretion) of MMAE is mainly through CYP3A4-mediated metabolism, biliary/fecal excretion, or urinary excretion. About 80% of MMAE excretes via feces, and only 6% excretes via urine. Therefore, we assumed that MMAE was eliminated only via metabolism and biliary/fecal excretion from the liver. […] For the derivation of CLint based on in vitro data, the CLint, vitro were estimated using human hepatocyte (3 µL/min/10^6 cells) and human ...

[3] = NCA of plasma, tumor-bearing mice

SMILES: CC[C@H](C)[C@@H]([C@@H](CC(=O)N1CCC[C@H]1[C@H](OC)[C@@H](C)C(=O)N[C@H](C)[C@@H](O)c1ccccc1)OC)N(C)C(=O)[C@@H](NC(=O)[C@@H](NC)C(C)C)C(C)C [MMAE, Monomethyl auristatin E] (H-[NMeV]V[Dil][Dolaproine]-X1)
- KP (tissue-to-plasma partition coefficient) ([1]; MDA-MB-468 tumor AUC0−t / plasma AUC0−t, tumor-bearing mice): 8.21
- AUC0−t ([1]; MDA-MB-468 tumor, tumor-bearing mice): 0.619 µM·h
- half-life [1, 3]: 2.5 h
- systemic CL [1, 3]: 60 mL/h
- volume of distribution (Vss) [1, 3]: 42 mL
- plasma AUC from 0 to 12 h ([1]; NCA, tumor-bearing mice): 54.3 ng·h/mL
- plasma AUC from 0 to infinite ([1]; NCA, tumor-bearing mice): 54.5 ng·h/mL
- injected dose remaining in plasma ([1]; after 5 min, tumor-bearing mice): 0.3%
- blood-to plasma ratio ([1]; at 6 h, tumor-bearing mice): ≈ 20
- KP (partition coefficient) ([1]; blood (blood cell) AUC0−t / plasma AUC0−t, tumor-bearing mice): 5.46
- KPadj ([1]; blood, tumor-bearing mice): 5.46
- AUC0−t ([1]; blood, MDA-MB-468 tumor-bearing mice): 0.414 µM·h
- KPadj ([1]; bone, tumor-bearing mice): 1.89
- AUC0−t ([1]; bone, MDA-MB-468 tumor-bearing mice): 0.11 µM·h
- KP (tissue-to-plasma partition coefficient) ([1]; brain AUC0−t / plasma AUC0−t, tumor-bearing mice): 0.411
- KPadj ([1]; brain, tumor-bearing mice): 0.530
- AUC0−t ([1]; brain, MDA-MB-468 tumor-bearing mice): 0.0312 µM·h
- blood-to plasma ratio ([1]; early time-points (<30 min), tumor-bearing mice): about 6
- KP (tissue-to-plasma partition coefficient) ([1]; fat AUC0−t / plasma AUC0−t, tumor-bearing mice): 2.43
- KPadj ([1]; fat, tumor-bearing mice): 3.01
- AUC0−t ([1]; fat, MDA-MB-468 tumor-bearing mice): 0.184 µM·h
- decrease of MMAE concentration in the tumor ([1]; from 1 to 168 h, MDA-MB-468 tumor, mice): 50%
- KP (tissue-to-plasma partition coefficient) ([1]; heart AUC0−t / plasma AUC0−t, tumor-bearing mice): 17.9
- KPadj ([1]; heart, tumor-bearing mice): 22.8
- AUC0−t ([1]; heart, MDA-MB-468 tumor-bearing mice): 1.356 µM·h
- KP (tissue-to-plasma partition coefficient) ([1]; kidney AUC0−t / plasma AUC0−t, tumor-bearing mice): 31.6
- KPadj ([1]; kidney, tumor-bearing mice): 42.4
- AUC0−t ([1]; kidney, MDA-MB-468 tumor-bearing mice): 2.396 µM·h
- KP (tissue-to-plasma partition coefficient) ([1]; liver AUC0−t / plasma AUC0−t (apparent, not adjusted for CLint), tumor-bearing mice): 2.42
- KPadj ([1]; liver, tumor-bearing mice): 3.80
- AUC0−t ([1]; liver, MDA-MB-468 tumor-bearing mice): 0.176 µM·h
- exposure relative to plasma exposure, highly perfused tissues ([1]; lung > spleen > liver > heart, tumor-bearing mice): > 15 fold
- KP (tissue-to-plasma partition coefficient) ([1]; lung AUC0−t / plasma AUC0−t, tumor-bearing mice): 35.3
- KPadj ([1]; lung, tumor-bearing mice): 64.9
- AUC0−t ([1]; lung, MDA-MB-468 tumor-bearing mice): 2.679 µM·h
- KP (tissue-to-plasma partition coefficient) ([1]; muscle AUC0−t / plasma AUC0−t, tumor-bearing mice): 1.25
- KPadj ([1]; muscle, tumor-bearing mice): 1.51
- AUC0−t ([1]; muscle, MDA-MB-468 tumor-bearing mice): 0.0946 µM·h
- KP (tissue-to-plasma partition coefficient) ([1]; pancreas AUC0−t / plasma AUC0−t, tumor-bearing mice): 2.11
- KPadj ([1]; pancreas, tumor-bearing mice): 2.93
- AUC0−t ([1]; pancreas, MDA-MB-468 tumor-bearing mice): 0.16 µM·h
- AUC0−t ([1]; plasma, MDA-MB-468 tumor-bearing mice, linear/log trapezoidal): 0.0754 µM·h
- KP (tissue-to-plasma partition coefficient) ([1]; skin AUC0−t / plasma AUC0−t, tumor-bearing mice): 1.71
- KPadj ([1]; skin, tumor-bearing mice): 2.87
- AUC0−t ([1]; skin, MDA-MB-468 tumor-bearing mice): 0.13 µM·h
- KP (tissue-to-plasma partition coefficient) ([1]; spleen AUC0−t / plasma AUC0−t, tumor-bearing mice): 27.1
- KPadj ([1]; spleen, tumor-bearing mice): 47.2
- AUC0−t ([1]; spleen, MDA-MB-468 tumor-bearing mice): 2.056 µM·h
- KP in the liver after accounting for CLint, without adjustments for the fractional cellular volume ([1]; tumor-bearing mice): 25.3
- exposure relative to plasma exposure, fat, pancreas, skin, bone, and muscle ([1]; tumor-bearing mice): about 2 fold
- time up to which MMAE concentration in the liver was quantifiable ([1]; tumor-bearing mice, LLOQ 0.2 ng/g): 6 h
- Plasma concentration after 12 h ([1]; tumor-bearing mice, LLOQ 0.2 ng/mL, LC-MS/MS): below the limit of quantification
- excretion via feces [2]: About 80%
- excretion via urine [2]: 6%
- renal excretion [2]: < 10%
